# Laboratory results: patent US10219516B2, “Molecules having pesticidal utility, and intermediates, compositions, and processes, related thereto” (priority 2015, dated 2019)
# Read-outs that look alike come from different tables or passages of the source.
# Assays:
# [1] = test system: Beet Armyworm (Spodoptera exigua, LAPHEG); test: Bioassay on Beet Armyworm (BAW), 128-well diet tray assay; type: in vivo
# Method in brief: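 Second instar larvae were exposed to diet treated at 50 μg/cm^2 for five to seven days at 25° C.; mortality was averaged over eight wells.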
# [2] = test system: Yellow Fever Mosquito (Aedes aegypti, AEDSAE); test: Bioassay on Yellow Fever Mosquito (YFM), 96-well plate larval assay; type: in vivo; settings: for YFM (Biological Results, rating): Species YFM (Yellow Fever Mosquito)
# Method in brief: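 Compound stocks at 4000 ppm in DMSO were diluted with 90:10 water/acetone, and 15 μL aliquots were dispensed into six replicate plates. About 1-day-old larvae in liver-powder water were added per well. Plates were covered and held at room temperature for 3 days before each well was scored for mortality.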
# [3] = test system: Green Peach Aphid (Myzus persicae, MYZUPE); test: Bioassay on Green Peach Aphid (GPA), foliar spray on infested cabbage seedlings; type: in vivo; settings: 72 h
# Method in brief: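 Cabbage seedlings (2-3 true leaves) infested with 20-50 wingless adult and nymph aphids one day before treatment; sprayed to runoff at 200 ppm in 0.025% Tween 20 water with 20% acetone/methanol, four pots per treatment. Held three days at about 25° C; live aphids counted, % control by Abbott's correction versus solvent check.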
# [4] = test system: Cabbage Looper (Trichoplusia ni, TRIPNI); test: Bioassay on Cabbage Looper (CL), 128-well diet tray assay; type: in vivo; settings: Trichoplusia ni
# Method in brief: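 Mortality of second instar larvae exposed to diet coated with 50 μg/cm^2 compound (acetone-water 90:10 vehicle, dried); 25° C., 5–7 days.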
# [5] = Species BAW (Beet Armyworm), read-out: BAW (Biological Results, rating)
# [6] = foliar, Species GPA (Green Peach Aphid), read-out: GPA (Biological Results, rating)
# [7] = Species CL (Cabbage Looper), read-out: CL (Biological Results, rating)
melting point [°C],Structure (SMILES),"pest or weed control at 50 µg/cm2 [1, 5] [%]","YFM (Biological Results, rating) [2]","pest or weed control at 200 µg/mL [3, 6] [%]","pest or weed control at 50 µg/cm2 [4, 7] [%]",also measured
98 to 101,Cc1cc([N+](=O)[O-])ccc1N(C)C(=O)OC(C)(C)C,–,–,–,–,–
178.3 to 188.6,O=C(O)C1C(c2cc(F)c(Br)c(F)c2)C1(Cl)Cl (stereo not drawn),–,–,–,–,–
104 to 115,CC(C)(C)OC(=O)N(C(=O)OC(C)(C)C)c1ccc(F)cc1N,–,–,–,–,–
169 to 170,O=C(Nc1ccc(F)cc1)c1cccc([N+](=O)[O-])n1,–,–,–,–,–
227 to 231,COc1c(Cl)cc(C2C(C(=O)Nc3ccc(Cl)c(C(=O)O)c3)C2(Cl)Cl)cc1Cl (stereo not drawn),–,–,–,–,–
181 to 183,Cc1c(Cl)cc(C2C(C(=O)O)C2(Cl)Cl)cc1Cl (stereo not drawn),–,–,–,–,–
102 to 107,CC(C)(C)OC(=O)N(C(=O)OC(C)(C)C)c1c(N)cc(F)cc1F,–,–,–,–,–
112 to 114,O=C(O)C1C(c2cc(C(F)(F)F)cc(C(F)(F)F)c2)C1(Cl)Cl (stereo not drawn),–,–,–,–,–
157 to 159,O=C(O)C1C(c2cc(Br)cc(Br)c2)C1(Cl)Cl (stereo not drawn),–,–,–,–,–
173 to 175,N#Cc1cc(Cl)cc(C2C(C(=O)O)C2(Cl)Cl)c1 (stereo not drawn),–,–,–,–,–
189 to 192,O=C(O)C1C(c2cc(Cl)c(Cl)cc2Cl)C1(Cl)Cl (stereo not drawn),–,–,–,–,–
136 to 138,Cc1ccc(C(=O)Nc2ccc(F)cc2)cc1[N+](=O)[O-],–,–,–,–,–
91 to 94,COc1ccc(/C=C/c2ccc(Cl)c(Cl)c2)cc1,–,–,–,–,–
137 to 145,Cc1ccc([N+](=O)[O-])cc1NC(=O)OC(C)(C)C,–,–,–,–,–
231 to 235,O=C(O)c1cc(NC(=O)C2C(c3cc(Cl)cc(Cl)c3)C2(Cl)Cl)cc(Cl)c1Cl (stereo not drawn),–,–,–,–,–
140 to 142,O=C(O)C1C(c2ccc(Cl)c(F)c2)C1(Cl)Cl (stereo not drawn),–,–,–,–,–
124 to 126,Cc1cc(Cl)cc(C2C(C(=O)O)C2(Cl)Cl)c1 (stereo not drawn),–,–,–,–,–

melting point [°C],Structure (SMILES),"pest or weed control at 50 µg/cm2 [1, 5] [%]","YFM (Biological Results, rating) [2]","pest or weed control at 200 µg/mL [3, 6] [%]","pest or weed control at 50 µg/cm2 [4, 7] [%]",also measured
134 to 136,O=C(O)C1C(c2ccc(OC(F)(F)F)c(Cl)c2)C1(Cl)Cl (stereo not drawn),–,–,–,–,–
161 to 163,O=C(O)C1C(c2cc(Cl)cc(Br)c2)C1(Cl)Cl (stereo not drawn),–,–,–,–,–
157 to 159,Cc1cc(C2C(C(=O)O)C2(Cl)Cl)cc(Cl)c1Cl (stereo not drawn),–,–,–,–,–
104 to 109.3,COc1ccc(C2C(c3cc(F)c(Br)c(F)c3)C2(Cl)Cl)cc1 (stereo not drawn),–,–,–,–,–
57 to 60,Cc1ccc([N+](=O)[O-])cc1N(C)C(=O)OC(C)(C)C,–,–,–,–,–
–,"O=C(Nc1c(F)cccc1F)c1cc(NC(=O)[C@H]2[C@H](c3ccc(Cl)c(F)c3)C2(Cl)Cl)ccc1Cl (relative stereo) [F163, trans-2-Chloro-5-(2,2-dichloro-3-(4-chloro-3-fluorophenyl)cyclopropane-1-carboxamido)-N-(2,6-difluorophenyl)benzamide]",50 to 100,B (More than 0-Less than 80),0 to 80,50 to 100,–
–,"O=C(Nc1ccccc1)c1cc(NC(=O)[C@H]2[C@H](c3cc(Cl)cc(Cl)c3)C2(Cl)Cl)ccc1Cl (relative stereo) [F16, trans-2-Chloro-5-(2,2-Dichloro-3-(3,5-dichlorophenyl)cyclopropane-1-carboxamido)-N-phenylbenzamide]",50 to 100,A (80-100),0 to 80,50 to 100,–
–,"CNC(=O)c1ccc(NC(=O)c2cc(NC(=O)[C@H]3[C@H](c4cc(Cl)cc(Cl)c4)C3(Cl)Cl)ccc2Cl)cn1 (relative stereo) [F77, trans-5-(2-Chloro-5-(2,2-dichloro-3-(3,5-dichlorophenyl)cyclopropane-1-carboxamido)benzamido)-N-methylpicolinamide]",50 to 100,A (80-100),80 to 100,50 to 100,–
–,"Cc1cc(C#N)ccc1NC(=O)c1cc(NC(=O)[C@H]2[C@H](c3ccc(Cl)c(Cl)c3)C2(Cl)Cl)ccc1Cl (relative stereo) [F55, trans-2-Chloro-N-(4-cyano-2-methylphenyl)-5-(2,2-dichloro-3-(3,4-dichlorophenyl)cyclopropane-1-carboxamido)benzamide]",50 to 100,A (80-100),80 to 100,50 to 100,–
–,"O=C(Nc1ccc(F)cc1)c1cc(NC(=O)[C@H]2[C@H](c3cc(Cl)cc(Cl)c3)C2(Cl)Cl)ccc1Cl (relative stereo) [F1, trans-2-chloro-5-(2,2-dichloro-3-(3,5-dichlorophenyl)cyclopropane-1-carboxamido)-N-(4-fluorophenyl)benzamide]",50 to 100,A (80-100),0 to 80,50 to 100,–
–,"O=C(Nc1ccc(F)cc1)c1cc(NC(=O)[C@H]2[C@H](c3cc(Cl)c(Cl)c(Cl)c3)C2(Cl)Cl)ccc1Cl [F279, 2-Chloro-5-((1R,3R)-2,2-dichloro-3-(3,4,5-trichlorophenyl)cyclopropane-1-carboxamido)-N-(4-fluorophenyl)benzamide]",50 to 100,A (80-100),80 to 100,50 to 100,–
–,"Cc1cc(C#N)ccc1NC(=O)c1cc(NC(=O)[C@H]2[C@H](c3cc(Cl)c(Cl)c(Cl)c3)C2(Cl)Cl)ccc1Cl (relative stereo) [F54, trans-2-Chloro-N-(4-cyano-2-methylphenyl)-5-(2,2-dichloro-3-(3,4,5-trichlorophenyl)cyclopropane-1-carboxamido)benzamide]",50 to 100,A (80-100),0 to 80,50 to 100,–
–,"O=C(Nc1ccc(F)cc1)c1cc(NC(=O)[C@H]2[C@H](c3cc(Cl)c(Cl)c(Cl)c3)C2(Cl)Cl)ccc1Cl (relative stereo) [F13, trans-2-Chloro-5-(2,2-dichloro-3-(3,4,5-trichlorophenyl)cyclopropane-1-carboxamido)-N-(4-fluorophenyl)benzamide]",50 to 100,A (80-100),0 to 80,50 to 100,–
–,"O=C(Nc1ccc(F)cc1F)c1cc(NC(=O)[C@H]2[C@H](c3ccc(Cl)c(Cl)c3)C2(Cl)Cl)ccc1Cl (relative stereo) [F39, trans-2-Chloro-5-(2,2-dichloro-3-(3,4-dichlorophenyl)cyclopropane-1-carboxamido)-N-(2,4-difluorophenyl)benzamide]",50 to 100,A (80-100),80 to 100,50 to 100,–
–,"O=C(Nc1cccc(F)c1)c1cc(NC(=O)[C@H]2[C@H](c3cc(Cl)c(Cl)c(Cl)c3)C2(Cl)Cl)ccc1Cl (relative stereo) [F50, trans-2-Chloro-5-(2,2-dichloro-3-(3,4,5-trichlorophenyl)cyclopropane-1-carboxamido)-N-(3-fluorophenyl)benzamide]",50 to 100,A (80-100),0 to 80,50 to 100,–
–,"O=C(Nc1ccc2nc(Cl)[nH]c2c1)c1cc(NC(=O)C2C(c3cc(Cl)cc(Cl)c3)C2(Cl)Cl)ccc1Cl (stereo not drawn) [F438, 2-Chloro-N-(2-chloro-1H-benzo[d]imidazol-6-yl)-5-(trans)-2,2-dichloro-3-(3,5-dichlorophenyl)cyclopropane-1-carboxamido)benzamide]",–,–,–,–,"pest or weed control at 50 µg/cm2 ([1]; Beet Armyworm, 128-well diet tray assay, read-out: BAW rating): 50 to 100%; YFM rating ([2]; Yellow Fever Mosquito, 96-well plate larval assay): B (More than 0-Less than 80); pest or weed control at 200 µg/mL ([3]; Green Peach Aphid, foliar spray on cabbage seedlings, read-out: GPA rating): 0 to 80%; pest or weed control at 50 µg/cm2 ([4]; Cabbage Looper, 128-well diet tray assay, read-out: CL rating): 50 to 100%"
